# Laboratory results as given in patent US20060189546A1, “Compounds for treating autoimmune and demyelinating diseases” (priority 2005, published 2006).
# How the values were obtained:
# [1] = human, body surface area, as free base; cited from earlier work
# T-lymphocyte cells = experiment: Cell Proliferation, T-Cell + Con A ([3H]thymidine incorporation); assay type: cell-based, balb/c mice; settings: Mus musculus
# Procedure: T-lymphocyte cells isolated from thymus of balb/c mice weighing 17±1 g were used. Test compound and/or vehicle is incubated with the cells (4×10^6/ml) in the presence of 3 μg/mL Concanavalin A (Con A) in AIM-V medium pH 7.4 at 37° C. for 24 hours. [^3H]Thymidine (120 nM) was then added for an additional overnight incubation period. Thymidine incorporation was assessed by liquid scintillation counting.
# Test compound-induced suppression of cell proliferation by 50 percent or more (≧50%) relative to vehicle control response indicates significant inhibitory activity.
# [2] = system: Experimental Autoimmune Encephalomyelitis (EAE); assay type: in vivo, guinea pig
# Procedure: Following disease induction, as previously described, the animals were randomized into 5 five cohorts, one vehicle control and 4 treatment cohorts. Animals in the treatment cohorts were administered study drug intraperitoneally at 20 mg/kg (Symadex™dihydrochloride trihydrate) once a week for 4, 6 and 8 weeks, with an additional cohort treated once a week for 4 weeks and observed for an additional 4 weeks of treatment with vehicle solution (saline) rather than with drug.
# The only significant protocol deviation from the method of Example 2 was that the pool of immunized animals was culled of animals presenting with a disease severity greater than 2 and randomized so that the mean disease severity of each cohort was matched in the severity score range of 1 to 1.5. This measure was invoked in order to avoid the chance circumstance, observed in Example 2, that animal selected for treatment should start treatment with a more severe presentation than the corresponding vehicle controls.
# [3] = system: Collagen Antibody Induced Arthritis; experiment: Collagen monoclonal antibody (mABs) + LPS induced arthritis, hind paw volume; assay type: in vivo, BALB/c strain mice; settings: for increase in hind paw volume: oral once daily for 3 days, 30 mg/kg
# Procedure: Groups of 3 BALB/c strain mice, 6-7 weeks of age, were used for the induction of arthritis by monoclonal antibodies (mABs) raised against type II collagen, plus lipopolysaccharide (LPS). A combination of 4 different mABs (D8, F10, DI-2G and A2) totaling 4 mg/mouse was administered to the animal intravenously on day 0, followed by intravenous challenge with […] of LPS 72 hours later (day 3). From day 3, test substance and vehicle were each administered orally once daily for 3 consecutive days. For each animal, volumes of both hind paws were measured using a plethysmometer with water cell (12 mm diameter) on Days 0, 5, 7, 10, 14 and 17. Percent inhibition of increase in volume induced by mABs+LPS was calculated by the following formula: Inhibition (%): [1−(Tn−T0)/(Cn−C0)]×100% Where: […]
# C0(Cn): volume of day 0 (day n) in vehicle control
# T0(Tn): volume of day 0 (day n) in test compound-treated group
# Reduction of edema in the hind paws by 30% or more is considered significant.
# IL-4 = experiment: Mediator release, IL-4 (Con A-stimulated PBML, sandwich ELISA); assay type: cell-based; settings: Homo sapiens
# Procedure: (§1) In this experiment, test compound and/or vehicle were preincubated with human peripheral blood mononuclear leukocyte (PBML, 1×10^6/ml) in RPMI buffer pH 7.4 for 2 hours. Concanavalin A (Con A, 20 μg/ml) was then added to stimulate the cells overnight in 5% CO2 at 37° C. IL-4 and IL-10 cytokine levels in the conditioned medium were then quantified using a sandwich ELISA kit. Compounds were screened at 10, 1, 0.1, 0.01 and 0.001 μM.
# HT29 cell line = experiment: GI50 concentration in HT29 cells; assay type: cell-based; settings: Homo sapiens, HT-29
# IL-10 = experiment: Mediator release, IL-10 (Con A-stimulated PBML, sandwich ELISA); assay type: cell-based; settings: Homo sapiens, IL-10 release
# Procedure: as §1
# [4] = 1 nM, read-out: % Growth Inhibition
# [5] = 10 nM, read-out: % Growth Inhibition
# [6] = 0.1 μM, read-out: % Growth Inhibition
# [7] = 1 μM, read-out: % Growth Inhibition
# [8] = 10 μM, read-out: % Growth Inhibition
structure (smiles),measurement,setting,value
"CCN(CC)CCNc1ccc2ncn3c4ccc(O)cc4c(=O)c1c23 [Symadex™, 5-[[(diethylamino)ethyl]amino]-8-hydroxyimidazo[4,5,1-de]-acridine-6-one]",safe and well-tolerated single dose,[1],540 mg/m^2
same,IC50,T-lymphocyte cells; T-Cell + Con A,14 nM
same,inhibition at 0.001 µM,"T-lymphocyte cells; T-Cell + Con A, 1 nM, read-out: % Growth Inhibition",10%
same,inhibition at 0.01 µM,"T-lymphocyte cells; T-Cell + Con A, 10 nM, read-out: % Growth Inhibition",44%
same,inhibition at 0.1 µM,"T-lymphocyte cells; T-Cell + Con A, 0.1 μM, read-out: % Growth Inhibition",82%
same,inhibition at 1 µM,T-lymphocyte cells; read-out: % Growth Inhibition,103%
same,inhibition at 10 µM,T-lymphocyte cells; read-out: % Growth Inhibition,104%
same,clinical scores after drug withdrawal,"[2]; 20 mg/kg i.p. once a week for 4 weeks, then 4 weeks vehicle",remained in stable disease at the time of discontinuation
same,mean clinical severity score,"[2]; 20 mg/kg i.p. once a week, 4-week treatment cycle, starting mean 1.3",0.7
same,mean severity score,"[2]; 20 mg/kg i.p. once a week, 6 week treatment course, control 1.3",0.3
same,clinical scores,"[2]; 20 mg/kg i.p., 8 consecutive weekly doses",converges on baseline at the end of the treatment course
same,increase in hind paw volume,"[3]; day 5, vehicle 42%",32%
same,inhibition of increase in paw volume,[3]; day 10,61%
same,increase in hind paw volume,"[3]; day 10, vehicle 75%",29%
same,inhibition of increase in paw volume,[3]; day 14,74%
same,increase in hind paw volume,"[3]; day 14, vehicle 70%",18%
same,inhibition of increase in paw volume,[3]; day 17,59%
same,increase in hind paw volume,"[3]; day 17, vehicle 47%",19%
same,% inhibition of IL-4 release at 0.001 µM,IL-4; [4],8%
same,% inhibition of IL-4 release at 0.01 µM,IL-4; [5],7%
same,% inhibition of IL-4 release at 0.1 µM,IL-4; [6],2%
same,% inhibition of IL-4 release at 1 µM,IL-4; [7],-9%
same,% inhibition of IL-4 release at 10 µM,IL-4; [8],105%
same,IC50,IL-4; IL-4 release,3330 nM
same,GI50,HT29 cell line,680 nM
same,IC50,IL-10,1200 nM
same,inhibition at 0.001 µM,IL-10; [4],1%
same,inhibition at 0.01 µM,IL-10; [5],16%
same,inhibition at 0.1 µM,IL-10; [6],16%
same,inhibition at 1 µM,IL-10; [7],39%
same,inhibition at 10 µM,IL-10; [8],99%
